In assay [1] the target is Gamma-aminobutyric acid type B receptor subunit 1 (Homo sapiens, UniProt Q9UBS5).
Assay [2] deals with 5-hydroxytryptamine receptor 6 (Homo sapiens, UniProt P50406).
Assay [3] has as its target T1, D(1A) dopamine receptor (Homo sapiens, UniProt P21728).
The target in assay [4] is Vascular endothelial growth factor receptor 2 (Homo sapiens, UniProt P35968). The assay is classed as functional.
Assay [5] addresses T2, Alpha-2A adrenergic receptor (Homo sapiens, UniProt P08913).
T2 sequence (P08913 whole entry): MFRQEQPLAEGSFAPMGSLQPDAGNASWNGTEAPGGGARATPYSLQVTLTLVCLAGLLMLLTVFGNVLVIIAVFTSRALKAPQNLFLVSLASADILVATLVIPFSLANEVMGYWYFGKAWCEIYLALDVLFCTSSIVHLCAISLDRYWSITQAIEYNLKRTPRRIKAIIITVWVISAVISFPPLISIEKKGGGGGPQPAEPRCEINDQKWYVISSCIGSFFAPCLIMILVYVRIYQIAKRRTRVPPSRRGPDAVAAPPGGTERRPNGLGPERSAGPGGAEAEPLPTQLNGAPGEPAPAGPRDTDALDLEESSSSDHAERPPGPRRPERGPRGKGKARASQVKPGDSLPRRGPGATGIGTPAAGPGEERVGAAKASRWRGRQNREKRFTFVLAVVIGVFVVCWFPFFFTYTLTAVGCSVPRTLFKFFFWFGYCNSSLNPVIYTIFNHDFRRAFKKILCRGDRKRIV

For a further assay, the target named is D(3) dopamine receptor (Homo sapiens, UniProt P35462).
Assay [6] has as its target Gamma-aminobutyric acid receptor subunit alpha-1/alpha-2/beta-2/gamma-2 (Homo sapiens, UniProt P14867+P18507+P47869+P47870). The assay is classed as protein-complex assay.
Assay [7] concerns the target 5-hydroxytryptamine receptor 2B (Homo sapiens, UniProt P41595). The assay is classed as functional, cell-based.
For assay [8], the target named is T3, Amine oxidase [flavin-containing] A (Homo sapiens, UniProt P21397).
T3 sequence (P21397 whole entry): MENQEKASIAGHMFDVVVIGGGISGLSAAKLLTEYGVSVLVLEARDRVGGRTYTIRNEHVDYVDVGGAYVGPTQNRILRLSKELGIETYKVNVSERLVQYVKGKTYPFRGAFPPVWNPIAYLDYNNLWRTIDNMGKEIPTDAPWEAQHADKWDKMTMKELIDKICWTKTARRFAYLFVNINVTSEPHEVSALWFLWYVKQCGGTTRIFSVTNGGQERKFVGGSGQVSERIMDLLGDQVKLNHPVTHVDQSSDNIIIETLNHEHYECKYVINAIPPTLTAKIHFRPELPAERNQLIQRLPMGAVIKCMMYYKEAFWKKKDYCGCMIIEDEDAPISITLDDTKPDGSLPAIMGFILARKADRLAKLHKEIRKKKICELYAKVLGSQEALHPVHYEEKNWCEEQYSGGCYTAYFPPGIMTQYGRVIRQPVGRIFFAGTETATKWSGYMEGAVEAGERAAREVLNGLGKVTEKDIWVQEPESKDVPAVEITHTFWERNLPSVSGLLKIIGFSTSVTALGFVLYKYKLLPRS
The assay is classed as functional.

A further assay has as its target Mu-type opioid receptor (Homo sapiens, UniProt P35372).
Assay [9] deals with Sodium-dependent serotonin transporter (Homo sapiens, UniProt P31645).
Assay [10] concerns the target T1, D(1A) dopamine receptor. The class given is functional, cell-based.
In the next assay the target is Histamine H1 receptor (Homo sapiens, UniProt P35367). The class given is functional, cell-based.
Assay [11] addresses T4, Peroxisome proliferator-activated receptor gamma (Homo sapiens, UniProt P37231).
T4 sequence (P37231 whole entry): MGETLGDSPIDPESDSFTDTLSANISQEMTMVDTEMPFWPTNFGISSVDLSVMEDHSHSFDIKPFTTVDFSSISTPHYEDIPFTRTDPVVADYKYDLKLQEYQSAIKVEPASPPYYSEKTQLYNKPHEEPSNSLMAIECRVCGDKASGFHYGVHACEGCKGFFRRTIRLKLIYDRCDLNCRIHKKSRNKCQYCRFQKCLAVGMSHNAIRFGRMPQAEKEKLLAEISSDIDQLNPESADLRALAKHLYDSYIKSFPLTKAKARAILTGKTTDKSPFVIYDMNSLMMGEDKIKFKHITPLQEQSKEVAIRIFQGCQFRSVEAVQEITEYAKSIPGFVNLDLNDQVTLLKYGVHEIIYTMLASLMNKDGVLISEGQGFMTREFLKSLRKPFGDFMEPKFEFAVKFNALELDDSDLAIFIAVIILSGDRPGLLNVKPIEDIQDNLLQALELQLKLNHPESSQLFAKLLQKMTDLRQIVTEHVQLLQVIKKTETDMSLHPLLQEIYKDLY
The assay is classed as functional.

The target in assay [12] is T4, Peroxisome proliferator-activated receptor gamma. The class given is functional. This is another data set of the same source.
The target in a further assay is T5, Estrogen receptor (Homo sapiens, UniProt P03372).
T5 sequence (P03372 whole entry): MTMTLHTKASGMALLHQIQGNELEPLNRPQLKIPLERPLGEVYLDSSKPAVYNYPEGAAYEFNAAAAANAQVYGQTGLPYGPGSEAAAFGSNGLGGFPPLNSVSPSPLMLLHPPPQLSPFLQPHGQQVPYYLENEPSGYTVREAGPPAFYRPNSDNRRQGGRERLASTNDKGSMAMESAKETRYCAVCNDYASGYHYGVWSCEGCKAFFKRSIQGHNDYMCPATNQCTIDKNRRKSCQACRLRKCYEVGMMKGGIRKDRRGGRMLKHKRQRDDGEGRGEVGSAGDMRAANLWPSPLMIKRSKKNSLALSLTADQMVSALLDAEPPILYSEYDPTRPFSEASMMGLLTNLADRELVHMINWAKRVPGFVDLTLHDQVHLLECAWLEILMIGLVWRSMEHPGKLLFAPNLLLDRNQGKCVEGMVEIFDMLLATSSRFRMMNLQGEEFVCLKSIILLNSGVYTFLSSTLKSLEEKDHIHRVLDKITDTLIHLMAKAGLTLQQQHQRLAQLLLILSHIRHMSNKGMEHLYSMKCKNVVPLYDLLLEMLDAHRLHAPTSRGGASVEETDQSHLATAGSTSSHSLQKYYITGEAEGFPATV

Assay [13] addresses Gamma-aminobutyric acid receptor subunit alpha-1/alpha-2/beta-2/gamma-2 (Homo sapiens, UniProt P14867+P47870+P18507+P47869). The class given is protein-complex assay.

AC50 data for eight compounds are collected here from ChEMBL document CHEMBL5291721, “A preclinical secondary pharmacology resource illuminates target-adverse drug reaction associations of marketed drugs” (Nat Commun, 2023).

Where only a bound is given, the exact number is not on record here.
Further: assay procedure not described here.

T1 sequence (P21728 whole entry): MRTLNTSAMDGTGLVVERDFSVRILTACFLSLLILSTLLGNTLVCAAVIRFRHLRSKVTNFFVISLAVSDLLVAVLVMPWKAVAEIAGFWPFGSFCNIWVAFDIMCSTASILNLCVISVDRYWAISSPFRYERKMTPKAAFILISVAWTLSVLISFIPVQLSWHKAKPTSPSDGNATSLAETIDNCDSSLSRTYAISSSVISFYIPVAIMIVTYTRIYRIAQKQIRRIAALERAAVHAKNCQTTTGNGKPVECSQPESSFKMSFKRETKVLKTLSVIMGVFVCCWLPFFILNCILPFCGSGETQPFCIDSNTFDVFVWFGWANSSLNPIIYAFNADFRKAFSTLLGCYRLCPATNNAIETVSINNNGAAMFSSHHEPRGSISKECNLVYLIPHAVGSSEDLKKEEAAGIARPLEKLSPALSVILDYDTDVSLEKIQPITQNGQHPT
Sequence of Vascular endothelial growth factor receptor 2 (P35968 whole entry): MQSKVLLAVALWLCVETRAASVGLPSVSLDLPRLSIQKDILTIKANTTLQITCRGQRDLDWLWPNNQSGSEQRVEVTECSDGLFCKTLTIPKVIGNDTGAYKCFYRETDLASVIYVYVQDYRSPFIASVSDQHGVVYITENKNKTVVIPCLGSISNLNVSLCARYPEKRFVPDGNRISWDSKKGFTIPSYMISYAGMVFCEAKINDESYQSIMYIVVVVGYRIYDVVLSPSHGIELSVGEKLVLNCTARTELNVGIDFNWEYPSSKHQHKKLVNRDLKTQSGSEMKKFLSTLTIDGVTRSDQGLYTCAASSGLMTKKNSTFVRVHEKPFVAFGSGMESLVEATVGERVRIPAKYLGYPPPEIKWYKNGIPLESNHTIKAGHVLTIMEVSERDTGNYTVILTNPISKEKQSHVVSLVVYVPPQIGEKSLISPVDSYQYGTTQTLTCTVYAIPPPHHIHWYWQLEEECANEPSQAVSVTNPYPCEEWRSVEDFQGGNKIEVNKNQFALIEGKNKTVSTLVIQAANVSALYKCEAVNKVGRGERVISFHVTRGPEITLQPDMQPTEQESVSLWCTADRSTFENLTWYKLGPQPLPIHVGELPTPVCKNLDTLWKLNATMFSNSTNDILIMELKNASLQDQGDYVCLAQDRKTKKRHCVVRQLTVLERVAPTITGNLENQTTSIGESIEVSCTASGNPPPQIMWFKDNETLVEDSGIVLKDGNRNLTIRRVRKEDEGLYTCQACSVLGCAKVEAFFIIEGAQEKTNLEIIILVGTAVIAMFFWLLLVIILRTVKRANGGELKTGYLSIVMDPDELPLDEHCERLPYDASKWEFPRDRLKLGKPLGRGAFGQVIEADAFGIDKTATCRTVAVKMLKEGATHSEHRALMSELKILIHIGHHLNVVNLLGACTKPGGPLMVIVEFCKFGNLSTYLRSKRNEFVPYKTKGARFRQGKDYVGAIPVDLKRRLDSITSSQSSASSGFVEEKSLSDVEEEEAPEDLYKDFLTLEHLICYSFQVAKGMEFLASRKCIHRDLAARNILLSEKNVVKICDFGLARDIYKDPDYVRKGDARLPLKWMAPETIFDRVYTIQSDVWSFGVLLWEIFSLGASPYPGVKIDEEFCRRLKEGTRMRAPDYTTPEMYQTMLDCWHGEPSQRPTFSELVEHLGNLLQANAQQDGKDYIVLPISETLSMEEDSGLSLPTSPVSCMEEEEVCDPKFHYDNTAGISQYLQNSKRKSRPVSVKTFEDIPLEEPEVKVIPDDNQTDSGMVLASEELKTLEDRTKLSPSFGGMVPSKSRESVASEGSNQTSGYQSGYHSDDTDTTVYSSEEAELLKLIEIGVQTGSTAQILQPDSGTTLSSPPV
Sequence of 5-hydroxytryptamine receptor 6 (P50406 whole entry): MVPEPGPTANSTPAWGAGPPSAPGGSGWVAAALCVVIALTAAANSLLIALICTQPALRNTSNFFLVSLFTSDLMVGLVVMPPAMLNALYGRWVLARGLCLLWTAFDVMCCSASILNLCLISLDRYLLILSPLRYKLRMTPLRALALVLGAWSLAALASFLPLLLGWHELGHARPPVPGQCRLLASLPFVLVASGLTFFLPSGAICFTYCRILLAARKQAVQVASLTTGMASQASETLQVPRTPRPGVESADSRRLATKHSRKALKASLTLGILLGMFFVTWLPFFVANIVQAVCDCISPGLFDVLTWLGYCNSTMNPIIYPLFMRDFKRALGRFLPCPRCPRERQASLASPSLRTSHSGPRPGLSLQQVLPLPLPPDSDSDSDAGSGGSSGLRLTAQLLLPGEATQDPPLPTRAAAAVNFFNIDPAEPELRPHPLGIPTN
Sequence of Sodium-dependent serotonin transporter (P31645 whole entry): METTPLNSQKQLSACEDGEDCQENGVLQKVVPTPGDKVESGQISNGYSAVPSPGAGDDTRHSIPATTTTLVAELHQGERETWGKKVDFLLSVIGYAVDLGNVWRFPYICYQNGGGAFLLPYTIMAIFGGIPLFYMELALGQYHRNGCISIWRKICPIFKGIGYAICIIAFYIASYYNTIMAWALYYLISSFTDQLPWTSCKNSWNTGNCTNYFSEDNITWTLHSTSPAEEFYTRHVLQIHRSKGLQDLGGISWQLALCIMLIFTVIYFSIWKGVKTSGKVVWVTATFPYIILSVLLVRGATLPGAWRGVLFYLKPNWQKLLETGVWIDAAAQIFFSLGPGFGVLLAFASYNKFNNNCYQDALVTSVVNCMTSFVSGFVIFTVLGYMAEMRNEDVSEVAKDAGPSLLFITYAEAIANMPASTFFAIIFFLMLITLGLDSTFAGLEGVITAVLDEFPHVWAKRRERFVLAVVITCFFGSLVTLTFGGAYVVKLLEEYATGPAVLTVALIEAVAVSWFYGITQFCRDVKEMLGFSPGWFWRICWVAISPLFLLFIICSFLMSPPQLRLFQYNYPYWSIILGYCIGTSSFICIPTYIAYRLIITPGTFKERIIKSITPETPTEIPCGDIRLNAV
Sequence of D(3) dopamine receptor (P35462 whole entry): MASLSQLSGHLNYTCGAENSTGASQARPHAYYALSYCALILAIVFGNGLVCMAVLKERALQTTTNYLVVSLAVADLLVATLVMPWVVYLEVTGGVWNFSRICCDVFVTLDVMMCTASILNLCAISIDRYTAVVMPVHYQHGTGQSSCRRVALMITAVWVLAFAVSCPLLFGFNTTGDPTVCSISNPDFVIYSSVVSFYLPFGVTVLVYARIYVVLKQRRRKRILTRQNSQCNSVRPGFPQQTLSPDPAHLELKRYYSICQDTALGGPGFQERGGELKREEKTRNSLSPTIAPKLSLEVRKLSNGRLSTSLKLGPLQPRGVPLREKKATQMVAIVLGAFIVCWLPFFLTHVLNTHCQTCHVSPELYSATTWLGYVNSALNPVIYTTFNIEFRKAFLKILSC
Sequence of Mu-type opioid receptor (P35372 whole entry): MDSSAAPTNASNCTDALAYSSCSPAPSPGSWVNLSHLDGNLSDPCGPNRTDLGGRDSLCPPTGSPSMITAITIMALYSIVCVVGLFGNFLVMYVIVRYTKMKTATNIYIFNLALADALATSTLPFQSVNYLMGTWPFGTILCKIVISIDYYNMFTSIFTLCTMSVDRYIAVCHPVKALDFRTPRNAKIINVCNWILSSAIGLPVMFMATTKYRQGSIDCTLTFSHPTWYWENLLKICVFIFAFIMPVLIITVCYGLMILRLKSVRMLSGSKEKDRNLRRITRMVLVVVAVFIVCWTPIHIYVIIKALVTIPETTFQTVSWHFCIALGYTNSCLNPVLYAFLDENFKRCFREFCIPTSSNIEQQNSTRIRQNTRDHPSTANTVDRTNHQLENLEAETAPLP
Sequence of 5-hydroxytryptamine receptor 2B (P41595 whole entry): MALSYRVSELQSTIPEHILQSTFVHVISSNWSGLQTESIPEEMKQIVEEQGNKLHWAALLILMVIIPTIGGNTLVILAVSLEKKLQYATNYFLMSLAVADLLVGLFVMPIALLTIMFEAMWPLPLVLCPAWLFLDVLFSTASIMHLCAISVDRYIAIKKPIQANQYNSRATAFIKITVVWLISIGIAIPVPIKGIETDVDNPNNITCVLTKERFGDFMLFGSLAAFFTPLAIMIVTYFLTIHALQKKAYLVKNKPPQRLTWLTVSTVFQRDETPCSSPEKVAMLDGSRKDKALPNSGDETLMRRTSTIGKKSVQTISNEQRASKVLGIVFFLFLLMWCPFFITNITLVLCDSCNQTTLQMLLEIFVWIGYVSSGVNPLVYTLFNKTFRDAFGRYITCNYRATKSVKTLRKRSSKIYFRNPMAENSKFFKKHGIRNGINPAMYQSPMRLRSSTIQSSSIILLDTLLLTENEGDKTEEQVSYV
Sequence of Histamine H1 receptor (P35367 whole entry): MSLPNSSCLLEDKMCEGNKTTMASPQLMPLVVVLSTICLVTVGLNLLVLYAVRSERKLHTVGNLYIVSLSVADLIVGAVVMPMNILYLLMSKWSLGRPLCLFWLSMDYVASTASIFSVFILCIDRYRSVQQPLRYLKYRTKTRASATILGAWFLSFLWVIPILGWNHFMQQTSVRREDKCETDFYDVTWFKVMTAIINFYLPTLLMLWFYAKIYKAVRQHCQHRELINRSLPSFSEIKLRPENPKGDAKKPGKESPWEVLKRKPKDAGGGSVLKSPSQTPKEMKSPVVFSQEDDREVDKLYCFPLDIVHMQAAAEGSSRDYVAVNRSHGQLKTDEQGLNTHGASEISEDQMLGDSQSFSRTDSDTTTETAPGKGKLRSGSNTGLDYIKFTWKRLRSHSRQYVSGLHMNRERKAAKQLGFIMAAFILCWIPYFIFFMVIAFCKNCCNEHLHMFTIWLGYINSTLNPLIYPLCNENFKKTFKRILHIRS

Regarding `Cc1c(OCC(F)(F)F)ccnc1C[S+]([O-])c1nc2ccccc2[nH]1` (stereo not drawn) [LANSOPRAZOLE], the AC50 (in assay [1]; in assay [2]; at D(1A) dopamine receptor [3]) was above 10 µM throughout.

Compound `CC(CC1c2ccccc2CCc2ccccc21)CN(C)C` (stereo not drawn) [BUTRIPTYLINE] returned an AC50 in assay [4] above 30 µM.

`CO[C@]12C[C@@H](COC(=O)c3cncc(Br)c3)CN(C)[C@@H]1Cc1cn(C)c3cccc2c13` [NICERGOLINE]: the AC50 in [5] was 0.0426 µM; at D(3) dopamine receptor, 0.641 µM; in [6], above 10 µM; in assay [7], above 30 µM; in assay [8], above 30 µM; at Mu-type opioid receptor, 2.38 µM. Half-maximal activity in assay [9] (AC50) was put at 7.26 µM.

At D(1A) dopamine receptor [10], `Cc1cc(C(C)(C)C)c(O)c(C)c1CC1=NCCN1` [OXYMETAZOLINE] gave an AC50 above 30 µM.

In turn, `COc1cccc(C2(O)CCCCC2CN(C)C)c1` (stereo not drawn) [TRAMADOL] yielded an AC50 at D(1A) dopamine receptor [3] above 10 µM.

The compound `NC(=O)CN1CC(O)CC1=O` (stereo not drawn) [OXIRACETAM] gave an AC50 at Histamine H1 receptor above 30 µM.

Take `Brc1c(NC2=NCCN2)ccc2nccnc12` [BRIMONIDINE]: the half-maximal activity concentration (AC50) in assay [11] and in assay [12] was above 30 µM each time.

Turning to THIMEROSAL, the half-maximal activity concentration (AC50) (on Estrogen receptor; in assay [13]) was above 30 µM each time.

The term AC50 denotes the concentration giving half of the maximal activity seen. Low values mean greater potency, high ones weaker potency.
